Measured values taken from patent US20260258003A1, “SLACK-ACTIVATING COMPOUNDS AND THEIR MEDICAL USE” (Johann Wolfgang Goethe-Universität Frankfurt am Main, priority 2023, published 2026).

Legend:
human Slack = biological target: T1, human Slack (Homo sapiens, UniProt Q5JUK3); assay: FluxOR potassium ion channel assay in HEK-Slack cells; assay type: cell-based; settings: Na+ free buffer with 2 mM Ca2+, 2 mM Mg2+, 0.03% DMSO, mean with 95% confidence interval; for EC50: read-out: FluxOR assay EC50; for Emax: read-out: FluxOR assay EMAX (% relative to Loxapine)
T1 construct: host or cells: HEK293
T1 sequence (Q5JUK3 1-1230): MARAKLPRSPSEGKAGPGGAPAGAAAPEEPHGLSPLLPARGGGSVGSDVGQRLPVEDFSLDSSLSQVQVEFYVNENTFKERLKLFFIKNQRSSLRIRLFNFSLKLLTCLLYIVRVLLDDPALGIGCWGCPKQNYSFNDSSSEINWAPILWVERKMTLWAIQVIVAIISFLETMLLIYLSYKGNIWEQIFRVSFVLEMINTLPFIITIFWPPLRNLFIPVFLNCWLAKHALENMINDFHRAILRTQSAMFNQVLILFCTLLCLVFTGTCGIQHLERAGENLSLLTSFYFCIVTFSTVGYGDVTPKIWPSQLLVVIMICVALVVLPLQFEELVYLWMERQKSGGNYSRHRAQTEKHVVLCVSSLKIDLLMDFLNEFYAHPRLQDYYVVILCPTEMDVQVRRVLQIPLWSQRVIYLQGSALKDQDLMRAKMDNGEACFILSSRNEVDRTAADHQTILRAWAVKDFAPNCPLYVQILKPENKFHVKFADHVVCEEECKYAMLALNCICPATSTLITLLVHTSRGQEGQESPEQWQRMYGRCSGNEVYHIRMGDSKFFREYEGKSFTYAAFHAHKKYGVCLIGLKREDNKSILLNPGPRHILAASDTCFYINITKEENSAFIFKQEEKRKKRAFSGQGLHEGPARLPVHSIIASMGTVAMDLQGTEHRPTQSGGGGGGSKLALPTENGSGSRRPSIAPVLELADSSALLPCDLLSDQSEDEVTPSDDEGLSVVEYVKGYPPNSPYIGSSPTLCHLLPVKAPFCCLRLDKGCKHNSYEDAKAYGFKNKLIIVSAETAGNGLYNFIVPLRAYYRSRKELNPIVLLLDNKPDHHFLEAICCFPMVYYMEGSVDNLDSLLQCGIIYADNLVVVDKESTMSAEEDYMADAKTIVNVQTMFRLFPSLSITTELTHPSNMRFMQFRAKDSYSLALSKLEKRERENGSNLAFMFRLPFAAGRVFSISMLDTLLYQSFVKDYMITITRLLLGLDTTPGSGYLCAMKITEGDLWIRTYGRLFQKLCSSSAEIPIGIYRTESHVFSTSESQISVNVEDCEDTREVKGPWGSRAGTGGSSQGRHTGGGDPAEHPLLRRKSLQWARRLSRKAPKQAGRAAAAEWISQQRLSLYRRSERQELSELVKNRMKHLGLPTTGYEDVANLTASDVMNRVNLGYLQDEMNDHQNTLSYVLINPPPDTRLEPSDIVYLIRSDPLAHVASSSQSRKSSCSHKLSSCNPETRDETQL
Procedure: For that purpose, cultured HEK293 cells stably expressing human Slack (herein referred to as HEK-Slack cells) were incubated with compounds in a Na^+ free buffer to prevent compound-independent Slack activation by monovalent cations^7,19.
In detail, in these experiments, the Slack-activating efficacy and potency of the novel compounds was determined using a commercial FluxOR™ Potassium Ion Channel Assay (Invitrogen). HEK293 cells stably expressing human Slack (herein referred to as HEK-Slack cells) were plated at a density of 50,000 cells per well of a poly-D-lysine coated (75 μg/mL, Sigma Aldrich) 96-well, black-walled microplate with clear bottom (Greiner Bio-One) in DMEM containing 10% FBS and 1% penicillin/streptomycin 24 hours prior to assaying.
On the experiment day, cells were loaded with FluxOR™ dye according to the manufacturer's protocol. A Na^+-free assay buffer containing 140 mM choline chloride, 5 mM KCl, 2 mM CaCl2), 2 mM MgSO4, 10 mM HEPES, 5.55 mM glucose, adjusted to pH 7.4 with KOH, was used. To reduce background fluorescence all assay components were complemented by 10% BackDrop™ Background Suppressor (Invitrogen). […]
After washing steps, cells were incubated with compounds for 30 min at 37° C. All compounds were prepared as a 33.3 mM DMSO stock and diluted at the experimental day to a final concentration of 100, 50, 25, 12.5, 6.25, and 3.125 μM in assay buffer containing […] DMSO. […] After stimulation with Tl2SO4 solution, the fluorescence was measured over 100 s (excitation 485 nm, emission 525 nm) using an Infinite M200 Microplate Reader (Tecan). Assays run in triplicate and the ratio to baseline fluorescence was calculated for all time points. Dose-response curves comprising six concentrations were performed in triplets using fluorescence/fluorescenceBaseline ratios at the 100th second.

[1] = tested on: chloroquine-induced scratching behavior of mice; assay: Chloroquine-induced itch model, topical application of creme; assay type: in vivo; settings: 5% in hydrophilic creme (Basiscreme DAC), topical 30 min prior to s.c. chloroquine
Procedure: Animals: Experiments were performed in 8-16 week-old C57BL/6N mice (Charles River, Sulzfeld, Germany) of either sex. The animals were housed under a 12 h light/dark cycle with access to food and water ad libitum. All experiments adhered to the Animal Research: Reporting on In Vivo Experiments (ARRIVE) guidelines and were approved by and conducted in accordance with the regulations of the local Animal Welfare authorities (Regierungspräsidium Darmstadt, Germany; approval number V54-19c20/15-FR/2011). All behavioral studies were conducted during the light cycle of the day at room temperature (20-24° C.) by an observer blinded for the treatment of the animals.
Drug formulation: A creme formulation of Compound 6 and Compound 21 was prepared by mixing a hydrophilic creme (Basiscreme DAC) with 5% of each Slack activator.
Behavioral assessment: Three to four days before the day of the experiment, the fur on the dorsolateral aspect of the neck was shaved under brief isoflurane anesthesia. On the testing day, Compound 6 creme, Compound 21 creme, or creme vehicle were applied topically on the shaved region of the neck under brief isoflurane anesthesia and the mice were habituated to a Plexiglas cylinder (30 cm in diameter) for 30 min immediately thereafter. […] The number of scratching bouts directed towards the nape of the neck was assessed over 30 min by videotaping.

[2] = tested on: heart rate and breath rate of mice; assay: Pulse oximetry on conscious, freely moving mice; assay type: in vivo; settings: 10 mg/kg i.p., observation period of 30 min
Procedure: Finally, potential side effects of Compound 6 were assessed by measuring cardiovascular functions by pulse oximetry.

Row | SMILES | EC50 (human Slack) [µM] | Emax (human Slack) [%] | chloroquine-induced scratching behavior after topical application [1] | breath rate [2] | heart rate [2]
1 | O=c1nc(CN2CCN(C3=Nc4cc(F)ccc4Oc4ccc(Cl)cc43)CC2)[nH][nH]1 [Compound 19, 5-((4-(2-Chloro-8-fluorodibenzo[b,f][1,4]oxazepin-11-yl)piperazin-1-yl)methyl)-1,2-dihydro-3H-1,2,4-triazol-3-one] | 21.1 | 117 | – | – | –
2 | O=c1nc(CN2CCN(C3=Nc4cc(F)ccc4Oc4ccc(C(F)(F)F)cc43)CC2)[nH][nH]1 [Compound 18, 5-((4-(8-Fluoro-2-(trifluoromethyl)dibenzo[b,f][1,4]oxazepin-11-yl)piperazin-1-yl)methyl)-1,2-dihydro-3H-1,2,4-triazol-3-one] | 11.2 | 127 | – | – | –
3 | O=c1nc(CN2CCCN(C3=Nc4ccccc4Oc4ccc(C(F)(F)F)cc43)CC2)[nH][nH]1 [Compound 20, 5-((4-(2-(Trifluoromethyl)dibenzo[b,f][1,4]oxazepin-11-yl)-1,4-diazepan-1-yl)methyl)-1,2-dihydro-3H-1,2,4-triazol-3-one] | 26.2 | 129 | – | – | –
4 | OCCN1CCN(C2=Nc3cc(F)ccc3Oc3ccc(C(F)(F)F)cc32)CC1 [Compound 21, 2-(4-(8-Fluoro-2-(trifluoromethyl)dibenzo[b,f][1,4]oxazepin-11-yl)piperazin-1-yl) ethan-1-ol] | 10.5 | 264 | significantly ameliorated scratching behavior | – | –
5 | CN1CC[C@]23c4c5ccc(O)c4O[C@H]2[C@@H](O)C=C[C@H]3[C@H]1C5 [morphine, reference compound] | – | – | – | significantly reduced | significantly reduced
6 | O=c1nc(CN2CCN(C3=Nc4ccccc4Oc4ccc(C(F)(F)F)cc43)CC2)[nH][nH]1 [Compound 11, 5-((4-(2-(Trifluoromethyl)dibenzo[b,f][1,4]oxazepin-11-yl)piperazin-1-yl)methyl)-1,2-dihydro-3H-1,2,4-triazol-3-one] | 10.7 | 199 | – | – | –
